Experimental data reported in US20190002429A1, “Derivatives of Xanthone Compounds” (Agency for Science, Technology and Research, priority 2011, published 2019).
Converted amounts (≈) assume the structure as drawn. Where two headings read alike, the source gives them in different places.

Experiments:
MRSA = test: MIC99 against MRSA (Table 2-1); assay type: cell-based, Staphylococcus aureus
S. aureus = test: MIC99 against S. aureus (Table 2-1); assay type: cell-based, Staphylococcus aureus
red blood cell [1] = test: Hemolytic activity / in vitro toxicity (HC50); conditions: for HC50: Table 2-1, in vitro toxicity; for Hemolytic concentration, HC50: Table 10
MRSA DM21455 [2] = test: MIC against MRSA DM21455; assay type: cell-based, Staphylococcus aureus; conditions: for Minimum inhibition concentration (MIC): MRSA DM21455, Source: Eye; for MIC: Staphylococcus aureus
MRSA DM09808R = test: MIC against MRSA DM09808R; assay type: cell-based, Staphylococcus aureus; conditions: for MIC: Staphylococcus aureus
[3] = system: Staphylococcus aureus ATCC29213; test: MIC against S. aureus ATCC29213; assay type: cell-based; conditions: for MIC: Table 5
[4] = system: Pseudomonas aeruginosa ATCC27853; test: MIC against Pseudomonas aeruginosa ATCC27853; assay type: cell-based
[5] = system: Clinical Staphylococcus aureus DM4001; test: Cytoplasmic membrane depolarization (DiSC3 dye); assay type: cell-based; conditions: DiSC3 fluorescence; AM-016 at 12.5 ug/mL
Method: Membrane potential-sensitive dye 3,3′-dipropylthiadicarbocyanine iodide (DiSC3) was used to determine the cytoplasmic membrane depolarization activity of AM-016. An overnight culture of clinical Staphylococcus aureus DM4001(source: Eye) was allowed to grow in Muller-Hinton broth (MHB) to OD620=0.3-0.4. Then, the bacteria was collected by centrifugation at 2800 r.p.m at 37° C. for 30 minutes and washed with 5 mM HEPES buffer at pH7. […] The cell suspension was then incubated with 0.1M KCl and 0.4 μM DiSC3 at 37° C. for 30 minutes. Dye uptake was monitored by fluorospectrometry (Photon Technology International (PTI) Photomultiplier Detection Systems, model 814) in a stirred cuvette until the fluorescence signal was stable. The desired concentration of AM-016 was added and the fluorescence was monitored at an excitation wavelength of 622 nm and at an emission wavelength of 670 nm. A blank with dye in the absence of bacteria with same concentration of AM-016 was used as a control.

Gram-positive bacteria = test: Antimicrobial activity against Gram-positive bacteria (statement); assay type: cell-based; conditions: at 50 ug/ml
red blood cell [6] = system: red blood cell
S. aureus DM4001 = test: SYTOX green membrane permeabilization assay, S. aureus; conditions: 10 μM; for SYTOX green staining of bacteria (fluorescence microscopy): FIG. 14; for Membrane permeabilization (SYTOX green fluorescence emission): fluorescence spectroscopy
Method: S. aureus DM4001 was harvested at early exponential phase and suspended in 40 mM PBS until OD620 of 0.09 was obtained. Then, the bacteria suspension was incubated with 3 μM of SYTOX Green in dark. The mixture was monitored in a stirring cuvette at an excitation wavelength of 504 nm and at an emission wavelength of 523 nm until the fluorescence was stable. Then, 10 μM of AM compounds were added and the changed of fluorescence emissions were monitored.

[7] = system: Mycobacterium tuberculosis
[8] = system: Bacillus cereus ATCC11778; test: MIC against Bacillus cereus ATCC11778; assay type: cell-based; conditions: for MIC: Table 5
[9] = system: Klebsiella pneumoniae ATCC10031; test: MIC against Klebsiella pneumoniae ATCC10031; assay type: cell-based
[10] = assay type: physicochemical; conditions: pH 7
Method: The solvent was added stepwise until the compound was dissolved completely. Then, the stock solution was diluted to series of diluents and the absorbance of each diluent was determined.

[11] = pH value in different media; assay type: physicochemical
Source text: The pH values were obtained using an electronic pH meter.

[12] = system: Clinical Staphylococcus aureus DM4001; test: MIC against clinical S. aureus DM4001; assay type: cell-based; parameters: MIC: unit not given here; conditions: Clinical S. aureus DM4001, Source: Eye; for MIC: Table 5
MRSA DM21595 = test: MIC against MRSA DM21595; assay type: cell-based, Staphylococcus aureus; conditions: Staphylococcus aureus
MRSA DR42412 = test: MIC against MRSA DR42412; assay type: cell-based, Staphylococcus aureus; conditions: Staphylococcus aureus
[13] = system: Staphylococcus aureus ATCC 700699 (VISA); test: MIC against S. aureus ATCC 700699 (MRSA-700699, VISA); assay type: cell-based; conditions: for MIC: Staphylococcus aureus
[14] = system: Mycobacterium tuberculosis; test: microbe, parasite or virus in culture; conditions: read-out: MIC100
[15] = system: Enterococcus faecalis ATCC 51299 VRE; test: MIC against Enterococcus faecalis ATCC 51299 VRE; assay type: cell-based; conditions: E. faecalis ATCC 51299 VRE; no unit in table (Example 10 MICs in μg/ml)
[16] = system: Enterococcus faecalis 11: DS6527 (VRE 208/11); test: MIC against Enterococcus faecalis DS6527 (VRE 208/11); assay type: cell-based; conditions: E. faecalis DS6527 (VRE 208/11); no unit in table (Example 10 MICs in μg/ml)
[17] = system: Enterococcus faecalis 11: DU9345 VRE; test: MIC against Enterococcus faecalis DU9345 VRE; assay type: cell-based; conditions: E. faecalis DU9345 VRE; no unit in table (Example 10 MICs in μg/ml)
[18] = system: Staphylococcus aureus 10: DB6506 (MRSA04/10) (VISA); test: MIC against S. aureus DB6506 (VISA); assay type: cell-based; conditions: no unit in table (Example 10 MICs in μg/ml)
MRSA DM21455 [19] = test: Drug resistance test, 20 serial passages; assay type: cell-based, Staphylococcus aureus; conditions: MRSA DM21455, FIG. 7

COc1c(O)cc2oc3cc(O)c(CC=C(C)C)c(O)c3c(=O)c2c1CC=C(C)C [AM-000, alpha-mangostin, reference compound]
MIC99 MRSA (MRSA): 1.56 µg/mL (≈ 3.8 µM) | MIC99 S. aureus (S. aureus): 1.56 µg/mL (≈ 3.8 µM) | HC50 (red blood cell [1]): 9 µg/mL | Hemolytic concentration, HC50 (red blood cell [1]): 6.5 µg/mL

COc1c(OCCCCBr)cc2oc3cc(OCCCCBr)c(CC=C(C)C)c(O)c3c(=O)c2c1CC=C(C)C [AM-005]
MIC99 MRSA (MRSA): >200 µg/mL | MIC99 S. aureus (S. aureus): >200 µg/mL | Minimum inhibition concentration (MIC) (MRSA DM21455 [2]): >50 µg/mL | Minimum inhibition concentration (MIC) (MRSA DM09808R; MRSA DM09808R, Source: Eye): >50 µg/mL | Minimum inhibition concentration (MIC) [3]: >50 µg/mL | Minimum inhibition concentration (MIC) [4]: >50 µg/mL | Cytoplasmic membrane depolarization [5]: does not depolarize the membrane | Activity against Gram-positive bacteria (Gram-positive bacteria): did not show activity | HC50 (red blood cell [6]): >200 µg/mL | SYTOX green staining of bacteria (fluorescence microscopy) (S. aureus DM4001): no significant staining | Membrane permeabilization (SYTOX green fluorescence emission) (S. aureus DM4001): not able to trigger the membrane permeabilization

COc1c(OCCCCN2CCOCC2)cc2oc3cc(OCCCCN4CCOCC4)c(CC=C(C)C)c(O)c3c(=O)c2c1CC=C(C)C [AM-009]
MIC99 MRSA (MRSA): >200 µg/mL | MIC99 S. aureus (S. aureus): >200 µg/mL | Minimum inhibition concentration (MIC) (MRSA DM21455 [2]): >25 µg/mL | Minimum inhibition concentration (MIC) [3]: >25 µg/mL | MIC100 [7]: 8 µM | MIC100 ([7]; value in brackets): 5.54 µg/mL | HC50 (red blood cell [1]): >200 µg/mL | Hemolytic concentration, HC50 (red blood cell [1]): >1000 µg/mL | SYTOX green staining of bacteria (fluorescence microscopy) (S. aureus DM4001): no significant staining | Membrane permeabilization (SYTOX green fluorescence emission) (S. aureus DM4001): not able to trigger the membrane permeabilization

CC(C)=CCc1c(O)cc2oc3cc(O)c(O)c(CC=C(C)C)c3c(=O)c2c1O [AM-013, Gamma-mangostin, reference compound]
MIC100 [7]: 125 µM | MIC100 ([7]; value in brackets): 49.55 µg/mL

CCN(CC)CCCCCCCCOc1cc2oc3cc(OCCCCCCCCN(CC)CC)c(OC)c(CC=C(C)C)c3c(=O)c2c(O)c1CC=C(C)C [AM-043]
Membrane permeabilization (SYTOX green fluorescence emission) (S. aureus DM4001): weaker membrane permeabilization effect

CCN(CC)CCCCCCCCCCOc1cc2oc3cc(OCCCCCCCCCCN(CC)CC)c(OC)c(CC=C(C)C)c3c(=O)c2c(O)c1CC=C(C)C [AM-044]
SYTOX green staining of bacteria (fluorescence microscopy) (S. aureus DM4001): no significant staining | Membrane permeabilization (SYTOX green fluorescence emission) (S. aureus DM4001): not able to trigger the membrane permeabilization

CCN(CC)CCCCCCCCCCCCOc1cc2oc3cc(OCCCCCCCCCCCCN(CC)CC)c(OC)c(CC=C(C)C)c3c(=O)c2c(O)c1CC=C(C)C [AM-045]
SYTOX green staining of bacteria (fluorescence microscopy) (S. aureus DM4001): no significant staining | Membrane permeabilization (SYTOX green fluorescence emission) (S. aureus DM4001): not able to trigger the membrane permeabilization

COC(=O)C(CCCNC(=N)N)NC(=O)COc1cc2oc3cc(OCC(=O)NC(CCCNC(=N)N)C(=O)OC)c(OC)c(CC=C(C)C)c3c(=O)c2c(O)c1CC=C(C)C (stereo not drawn) [AM-052]
MIC99 (MRSA DM21455 [2]; Methicillin-resistant S. aureus DM21455, Source: Eye): 1.56 µg/mL (≈ 1.8 µM) | MIC99 (MRSA DM09808R; Methicillin-resistant S. aureus DM09808R): 3.125 µg/mL (≈ 3.6 µM) | MIC99 [3]: 6.25 µg/mL (≈ 7.21 µM) | MIC99 [8]: 3.125 µg/mL (≈ 3.6 µM) | MIC99 [4]: 12.5 µg/mL (≈ 14.4 µM) | MIC99 [9]: 6.25 µg/mL (≈ 7.21 µM) | Solubility [10]: not soluble | pH ([11]; Saline, 50 μg/ml compound): 5.33 ± 0.05 | pH ([11]; Saline, 100 μg/ml compound): 5.33 ± 0.01 | pH ([11]; Water, 50 μg/ml compound): 6.52 ± 0.29 | pH ([11]; Water, 100 μg/ml compound): 7.66 ± 0.33 | HC50 (red blood cell [6]): 238 µg/mL

COc1c(O)cc2oc3cc(OCC(=O)O)c(CC=C(C)C)c(O)c3c(=O)c2c1CC=C(C)C [AM-071]
Minimum inhibition concentration (MIC) (MRSA DM21455 [2]): 25 µg/mL (≈ 53.4 µM) | Minimum inhibition concentration (MIC) [12]: 25 µg/mL (≈ 53.4 µM) | MIC [12]: 53.36 | Minimum inhibition concentration (MIC) [3]: 12.5 µg/mL (≈ 26.7 µM) | MIC [3]: 26.68 µM (≈ 12.5 µg/mL) | Minimum inhibition concentration (MIC) [8]: 6.25 µg/mL (≈ 13.3 µM) | MIC [8]: 13.34 µM (≈ 6.25 µg/mL) | MIC100 [7]: 250 µM | Hemolytic concentration, HC50 (red blood cell [1]): 37.5 µg/mL

COc1c(OCC(=O)O)cc2oc3cc(O)c(CC=C(C)C)c(O)c3c(=O)c2c1CC=C(C)C [AM-072]
Minimum inhibition concentration (MIC) (MRSA DM21455 [2]): 6.25 µg/mL (≈ 13.3 µM) | Minimum inhibition concentration (MIC) [12]: 6.25 µg/mL (≈ 13.3 µM) | MIC [12]: 13.34 | Minimum inhibition concentration (MIC) [3]: 6.25 µg/mL (≈ 13.3 µM) | MIC [3]: 13.34 µM (≈ 6.25 µg/mL) | Minimum inhibition concentration (MIC) [8]: 6.25 µg/mL (≈ 13.3 µM) | MIC [8]: 13.34 µM (≈ 6.25 µg/mL) | MIC100 [7]: 250 µM

CCCCCCCCCC(=O)N[C@@H](Cc1c[nH]c2ccccc12)C(=O)N[C@H](CC(N)=O)C(=O)N[C@@H](CC(=O)O)C(=O)N[C@@H]1C(=O)NCC(=O)N[C@@H](CCCN)C(=O)N[C@@H](CC(=O)O)C(=O)N[C@H](C)C(=O)N[C@@H](CC(=O)O)C(=O)NCC(=O)N[C@H](CO)C(=O)N[C@@H]([C@H](C)CC(=O)O)C(=O)N[C@@H](CC(=O)c2ccccc2N)C(=O)O[C@@H]1C [Daptomycin, reference compound]
MIC (MRSA DM21455 [2]; MRSA-21455 (Eye), Example 10, Mueller Hinton broth dilution, read-out: MIC): 0.78 µg/mL (≈ 0.481 µM) | MIC (MRSA DM09808R; MRSA-09808R (Eye), Example 10, Mueller Hinton broth dilution, read-out: MIC): 0.195 µg/mL (≈ 0.12 µM) | MIC (MRSA DM21595; MRSA-21595 (Wound), Example 10, Mueller Hinton broth dilution, read-out: MIC): 0.395 µg/mL (≈ 0.244 µM) | MIC (MRSA DR42412; MRSA-42412 (Sputum), Example 10, Mueller Hinton broth dilution, read-out: MIC): 0.195 µg/mL (≈ 0.12 µM) | MIC ([13]; MRSA-700699, Example 10, Mueller Hinton broth dilution, read-out: MIC): 0.78 µg/mL (≈ 0.481 µM)

CC[C@@H](CO)NCCN[C@@H](CC)CO [Ethambutol]
MIC [14]: 20 µM (≈ 4.09 µg/mL)

CN[C@H](CC(C)C)C(=O)N[C@H]1C(=O)N[C@@H](CC(N)=O)C(=O)N[C@H]2C(=O)N[C@H]3C(=O)N[C@H](C(=O)N[C@H](C(=O)O)c4cc(O)cc(O)c4-c4cc3ccc4O)[C@H](O)c3ccc(c(Cl)c3)Oc3cc2cc(c3O[C@@H]2O[C@H](CO)[C@@H](O)[C@H](O)[C@H]2O[C@H]2C[C@](C)(N)[C@H](O)[C@H](C)O2)Oc2ccc(cc2Cl)[C@H]1O [Vancomycin, reference compound]
MIC (MRSA DM21455 [2]; MRSA): 0.78 µg/mL (≈ 0.538 µM) | MIC (MRSA DM09808R; MRSA): 0.395 µg/mL (≈ 0.273 µM) | MIC (MRSA DM21595; MRSA): 0.78 µg/mL (≈ 0.538 µM) | MIC (MRSA DR42412; MRSA): 0.78 µg/mL (≈ 0.538 µM) | Minimum inhibitory concentration ([13]; S. aureus ATCC 700699 (VISA), no unit in table (Example 10 MICs in μg/ml)): 6.25 | MIC [13]: 6.25 µg/mL (≈ 4.31 µM) | Minimum inhibitory concentration [15]: 50 | Minimum inhibitory concentration [16]: Above 100 | Minimum inhibitory concentration [17]: 1.56 | Minimum inhibitory concentration [18]: 1.56 | Development of drug resistance (MRSA DM21455 [19]): develops drug resistance more quickly
